Assay results as given in publication PMC7481482, “Development of Anthraquinone Derivatives as Ectonucleoside Triphosphate Diphosphohydrolase (NTPDase) Inhibitors With Selectivity for NTPDase2 and NTPDase3” (Frontiers in Pharmacology, 2020).
Counter-ions that a name gives are not always drawn.

Assays:
human NTPDase1 = molecular target: T1, human NTPDase1 (Homo sapiens, UniProt P49961); assay: Malachite green assay, human NTPDase1; format: biochemical; conditions: 2 μM compound, 50 µM ATP, COS-7 membrane preparation; for inhibition at 2 µM: read-out: % inhibition at 2 μM concentration, NTPDase1
T1 construct: expressed in transfected cells; host or cells: COS-7 cells (membrane preparation)
T1 sequence (P49961 1-510): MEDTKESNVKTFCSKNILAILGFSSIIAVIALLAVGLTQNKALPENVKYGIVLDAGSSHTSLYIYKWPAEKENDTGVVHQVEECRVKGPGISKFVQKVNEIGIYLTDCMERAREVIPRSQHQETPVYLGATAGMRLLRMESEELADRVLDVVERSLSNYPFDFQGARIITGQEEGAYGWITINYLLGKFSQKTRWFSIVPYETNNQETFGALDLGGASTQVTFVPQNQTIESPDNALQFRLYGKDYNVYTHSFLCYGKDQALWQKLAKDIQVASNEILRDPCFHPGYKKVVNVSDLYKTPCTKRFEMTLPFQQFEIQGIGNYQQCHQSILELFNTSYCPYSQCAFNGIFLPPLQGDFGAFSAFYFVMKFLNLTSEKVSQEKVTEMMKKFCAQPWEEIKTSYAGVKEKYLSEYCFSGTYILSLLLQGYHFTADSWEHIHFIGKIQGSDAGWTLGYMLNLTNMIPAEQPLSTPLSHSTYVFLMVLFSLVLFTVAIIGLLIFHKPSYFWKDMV
Experimental: (§1) Membrane preparations expressing human NTPDase1, -2, -3, or -8, respectively, were obtained as previously described ([Sévigny et al., 1997]; [Cogan et al., 1999]; [Kukulski et al., 2005]; [Lecka et al., 2013]; [Lee et al., 2018]). Enzyme inhibition assays were performed using the malachite green assay in analogy to published procedures with some modifications ([Dou et al., 2018]). The reaction buffer contained 10 mM HEPES, 2 mM CaCl2, and 1 mM MgCl2 (pH 7.4) in a final volume of 50 μL in transparent 96-well half-area plates. The compounds were initially tested at a final concentration of 2 µM using a COS-7-cell membrane preparation expressing the appropriate NTPDase isoenzyme (protein amount: 143 ng for NTPDase1, 175 ng for NTPDase2, 152 ng for NTPDase3, and 175 ng for NTPDase8). Preincubated of the enzyme preparations was perfomred at 37°C in the presence or absence of test compounds with gentle shaking (Eppendorf Thermomixer comfort at 500 rpm) for 5 min. […] ([Kukulski et al., 2005]). After 15 min of incubation at 37°C with gentle shaking, the reaction was stopped by the addition of the detection reagents (20 µL malachite green solution, 0.6 mM, and 30 µL of ammonium molybdate solution, 20 mM, in 1.5 M sulfuric acid). The released inorganic phosphate was quantified after 20 min of gentle shaking at 25°C by measuring the absorption of the malachite green-phosphomolybdate complex at 600 nm using a BMG PheraStar FS plate reader (BMG Labtech GmbH, Ortenberg, Germany). The corrected absorption was calculated by subtracting the absorption of the negative control samples, which were incubated with previously denatured enzyme (90°C, 15 min). Full concentration-inhibition curves were determined with inhibitor concentrations ranging from 0.03 to 30 µM in the presence of 2% DMSO. Inhibition-type experiments were performed with 25, 50, 100, 150 and 200 µM ATP as substrate for NTPDase2 in the presence of inhibitor 20 (0, 0.25, 0.5, and 1 µM) and 25, 50, 100 and 150 µM ATP substrate for NTPDase3 and compound 42 (0.25, 0.5, and 1 µM). For all of the presented data, at least three independent experiments were performed, and IC50 values were calculated by GraphPad Prism 8 software.
(§2) Inhibition of human NTPDases was performed using the malachite green assay, which was established on a robotic system (Z’ factors > 0.70) ([Baykov et al., 1988]; [Fiene et al., 2015]). The malachite green assay enables the detection of the phosphate produced by the enzymatic hydrolysis of nucleotides. A fixed substrate concentration of 50 µM ATP for NTPDase1 and 100 µM for NTPDase2, -3, and -8 was employed. Test compounds were initially screened at a concentration of 2 μM. […] A total of 48 synthesized anthraquinone derivatives including 14 new compounds not previously described in the literature were evaluated for their inhibitory activity at human NTPDase1, -2, -3, and -8 (for results see Table 1).

human NTPDase2 = molecular target: T2, human NTPDase2 (Homo sapiens, UniProt Q9Y5L3); assay: Malachite green assay, human NTPDase2; format: biochemical; conditions: 100 µM ATP, COS-7 membrane preparation; for inhibition at 2 µM: read-out: % inhibition at 2 μM concentration, NTPDase2; for IC50: read-out: IC50 ± SEM, NTPDase2
T2 construct: expressed in transfected cells; host or cells: COS-7 cells (membrane preparation)
T2 sequence (Q9Y5L3 1-495): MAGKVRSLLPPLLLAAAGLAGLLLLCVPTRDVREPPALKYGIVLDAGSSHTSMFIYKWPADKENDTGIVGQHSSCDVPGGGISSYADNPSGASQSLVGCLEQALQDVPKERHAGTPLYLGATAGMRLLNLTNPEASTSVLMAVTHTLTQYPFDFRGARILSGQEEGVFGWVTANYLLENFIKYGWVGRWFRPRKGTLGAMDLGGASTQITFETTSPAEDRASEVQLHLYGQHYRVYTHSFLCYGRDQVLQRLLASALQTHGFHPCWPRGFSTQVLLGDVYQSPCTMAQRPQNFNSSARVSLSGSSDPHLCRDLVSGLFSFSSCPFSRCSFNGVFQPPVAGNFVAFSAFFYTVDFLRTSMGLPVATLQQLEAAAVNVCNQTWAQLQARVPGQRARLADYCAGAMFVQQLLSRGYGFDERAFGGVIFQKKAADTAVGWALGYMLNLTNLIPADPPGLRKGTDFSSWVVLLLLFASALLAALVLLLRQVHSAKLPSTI
Experimental: as §1, §2

human NTPDase8 = molecular target: T3, human NTPDase8 (Homo sapiens, UniProt Q5MY95); assay: Malachite green assay, human NTPDase8; format: biochemical; conditions: for inhibition at 2 µM: read-out: % inhibition at 2 μM concentration, NTPDase8
T3 construct: expressed in transfected cells; host or cells: COS-7 cells (membrane preparation)
T3 sequence (Q5MY95 1-495): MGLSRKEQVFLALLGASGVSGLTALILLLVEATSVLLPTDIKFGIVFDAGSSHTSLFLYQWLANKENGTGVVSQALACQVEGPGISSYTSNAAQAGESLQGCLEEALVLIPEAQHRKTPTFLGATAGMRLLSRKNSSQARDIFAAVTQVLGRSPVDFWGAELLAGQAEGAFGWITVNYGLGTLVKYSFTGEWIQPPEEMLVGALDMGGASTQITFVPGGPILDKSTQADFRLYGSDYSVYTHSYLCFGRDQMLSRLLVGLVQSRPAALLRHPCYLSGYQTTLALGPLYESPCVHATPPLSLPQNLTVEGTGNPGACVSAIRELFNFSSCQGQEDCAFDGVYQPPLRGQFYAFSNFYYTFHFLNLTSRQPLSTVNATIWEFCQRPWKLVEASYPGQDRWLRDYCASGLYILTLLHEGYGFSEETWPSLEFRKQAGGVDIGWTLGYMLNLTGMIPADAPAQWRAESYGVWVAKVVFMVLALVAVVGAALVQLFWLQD
Experimental: as §1, §2

human NTPDase3 = molecular target: T4, human NTPDase3 (Homo sapiens, UniProt O75355); assay: Malachite green assay, human NTPDase3; format: biochemical; conditions: 100 µM ATP, COS-7 membrane preparation; for inhibition at 2 µM: 2 μM compound, read-out: % inhibition at 2 μM concentration, NTPDase3; for IC50: read-out: IC50 ± SEM, NTPDase3
T4 construct: expressed in transfected cells; host or cells: COS-7 cells (membrane preparation)
T4 sequence (O75355 1-529): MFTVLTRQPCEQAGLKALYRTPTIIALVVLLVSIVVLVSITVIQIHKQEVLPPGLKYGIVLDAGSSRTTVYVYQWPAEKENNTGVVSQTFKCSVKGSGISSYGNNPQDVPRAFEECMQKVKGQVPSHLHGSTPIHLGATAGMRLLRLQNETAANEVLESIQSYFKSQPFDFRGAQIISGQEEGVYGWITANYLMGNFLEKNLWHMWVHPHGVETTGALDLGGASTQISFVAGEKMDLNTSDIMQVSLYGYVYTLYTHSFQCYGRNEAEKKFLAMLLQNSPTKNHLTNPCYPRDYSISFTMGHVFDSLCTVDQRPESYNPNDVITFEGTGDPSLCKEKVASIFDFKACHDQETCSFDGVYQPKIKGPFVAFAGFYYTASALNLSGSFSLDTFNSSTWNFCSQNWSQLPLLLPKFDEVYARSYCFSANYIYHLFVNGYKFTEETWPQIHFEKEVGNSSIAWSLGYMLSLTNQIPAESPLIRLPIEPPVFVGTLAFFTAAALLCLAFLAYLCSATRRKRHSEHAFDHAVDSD
Experimental: as §1, §2

[1] = 2 μM compound, 100 µM ATP, COS-7 membrane preparation

Row | SMILES | inhibition at 2 µM (human NTPDase1) [%] | inhibition at 2 µM (human NTPDase2; 2 μM compound) [%] | inhibition at 2 µM (human NTPDase8; [1]) [%] | inhibition at 2 µM (human NTPDase3) [%] | IC50 (human NTPDase2) [nM] | melting point [°C] | IC50 (human NTPDase3) [µM] | % inhibition at 2 μM concentration, NTPDase1 (human NTPDase1) | % inhibition at 2 μM concentration, NTPDase2 (human NTPDase2; 2 μM compound) | inhibitory activity at NTPDase8 (in words) (human NTPDase8) | % inhibition at 2 μM concentration, NTPDase8 (human NTPDase8; [1])
1 | Nc1c(Br)cc(Nc2cccc(C(=O)O)c2)c2c1C(=O)c1ccccc1C2=O [Compound 52] | -2 | -5 | 3 | 1 |  |  |  |  |  |  | 
2 | Nc1c(S(=O)(=O)O)cc(Nc2ccccc2)c2c1C(=O)c1ccccc1C2=O [Compound 14] | -13 | 15 | -15 | -10 |  |  |  |  |  |  | 
3 | Cc1ccc(C)c(Sc2ccc(Nc3cc(S(=O)(=O)O)c(N)c4c3C(=O)c3ccccc3C4=O)cc2)c1 [Compound 50] | 38 |  | 17 | 34 | 1130 ± 270 |  |  |  |  |  | 
4 | Cc1ccc(Sc2ccc(Nc3cc(S(=O)(=O)O)c(N)c4c3C(=O)c3ccccc3C4=O)cc2)c(C)c1 [Compound 49] | 46 |  | 27 | 36 | 1280 ± 340 |  |  |  |  |  | 
5 | Nc1c(S(=O)(=O)O)cc(Nc2ccc(Nc3nc(Cl)nc(Nc4cccc(S(=O)(=O)O)c4)n3)c(S(=O)(=O)O)c2)c2c1C(=O)c1ccccc1C2=O [Compound 5, reactive blue-2, reference compound] |  |  |  |  |  |  | 0.942 ± 0.024 | (17) % | (42) % | inactive | (-8) %
6 | Cc1cc(Nc2cccc(F)c2)c2c(c1N)C(=O)c1ccccc1C2=O [Compound 54] | -4 | 7 | -2 | -2 |  |  |  |  |  |  | 
7 | CCc1cccc(Nc2cc(C)c(N)c3c2C(=O)c2ccccc2C3=O)c1 [Compound 56] | -3 | 6 | -3 | -1 |  |  |  |  |  |  | 

Further lines, with some results ahead:

Row | inhibition at 2 µM (human NTPDase1) [%] | inhibition at 2 µM (human NTPDase2; 2 μM compound) [%] | inhibition at 2 µM (human NTPDase8; [1]) [%] | inhibition at 2 µM (human NTPDase3) [%] | IC50 (human NTPDase2) [nM] | melting point [°C] | IC50 (human NTPDase3) [µM] | SMILES | % inhibition at 2 μM concentration, NTPDase1 (human NTPDase1) | % inhibition at 2 μM concentration, NTPDase2 (human NTPDase2; 2 μM compound) | inhibitory activity at NTPDase8 (in words) (human NTPDase8) | % inhibition at 2 μM concentration, NTPDase8 (human NTPDase8; [1])
8 | 7 |  | 3 | 3 | 1320 ± 50 |  |  | Nc1c(S(=O)(=O)O)cc(Nc2ccc(Cc3ccccc3)cc2)c2c1C(=O)c1ccccc1C2=O [Compound 43] |  |  |  | 
9 |  |  |  |  |  | > 300 |  | Nc1c(S(=O)(=O)O)cc(Nc2ccc(Sc3ccccc3)c(Cl)c2)c2c1C(=O)c1ccccc1C2=O (as salt: sodium) [Compound 48, Sodium 1-amino-4-(3-chloro-4-phenylsulfanyl)-phenylamino-9,10-dioxo-9,10-dihydroanthracene-2-sulfonate] |  |  |  | 
10 | 36 |  | 28 |  | 3590 ± 850 |  | 13.1 ± 1.65 | Nc1c(S(=O)(=O)O)cc(Nc2cccc(Cc3ccccc3)c2)c2c1C(=O)c1ccccc1C2=O [Compound 39] |  |  |  | 
11 | 12 |  | 9 | 18 | 1110 ± 60 |  |  | Nc1c(S(=O)(=O)O)cc(Nc2cccc(Oc3ccccc3)c2)c2c1C(=O)c1ccccc1C2=O [Compound 40] |  |  |  | 
12 | -10 | 11 | 3 | 6 |  |  |  | Nc1c(S(=O)(=O)O)cc(NCc2ccccc2)c2c1C(=O)c1ccccc1C2=O [Compound 12] |  |  |  | 
13 | 29 |  | 14 | 20 | 551 ± 195 |  |  | Nc1c(S(=O)(=O)O)cc(Nc2ccc(Sc3ccccc3)c(Cl)c2)c2c1C(=O)c1ccccc1C2=O [Compound 48, Sodium 1-amino-4-(3-chloro-4-phenylsulfanyl)-phenylamino-9,10-dioxo-9,10-dihydroanthracene-2-sulfonate] |  |  |  | 
14 | -8 | 15 | -1 | 0 |  |  |  | Nc1c(S(=O)(=O)O)cc(Nc2cccc(F)c2)c2c1C(=O)c1ccccc1C2=O [Compound 21] |  |  |  | 
15 | -17 | 2 | -17 |  |  |  | 3.1 ± 0.45 | Nc1c(S(=O)(=O)O)cc(Nc2cccc(C(=O)O)c2)c2c1C(=O)c1ccccc1C2=O [Compound 26] |  |  |  | 
16 | -15 | 1 | -19 |  |  |  | 4.26 ± 0.54 | Nc1cc(Nc2cc(S(=O)(=O)O)c(N)c3c2C(=O)c2ccccc2C3=O)ccc1S(=O)(=O)O [Compound 31] |  |  |  | 
